Test results taken from US4415495A, “5,6;8,9-Tetrahydro-7H-dibenz(d,f)azonines” (Godecke Aktiengesellschaft, priority 1981, dated 1983).

Experiments:
[1] = system: Rats with calcium chloride induced arrhythmias; test: Calcium chloride induced arrhythmias in narcotised rats (prophylactic i.v. administration); type: in vivo; settings: for average period of arrhythmia: control 10.9 min.
Excerpt: By means of the intravenous infusion of a calcium chloride solution, […] induced in narcotised rats which, after termination of the infusion, continue for a certain period of time (modification of the method described by Malinow et al., Arch. Int. Pharmacodyn, 102, 266/1955). This arrhythmic phase is shortened by the prophylactic administration of antiarrhythmic drugs. […] The results of the experiments with calcium chloride induced arrhythmias on rats are summarized in the following Table I. The average period of arrhythmia is calculated from experiments with at least 10 animals.

[2] = system: guinea pig left ventricle; test: Refractory time of electrically stimulated guinea pig left ventricles (organ bath)
Experimental: The left ventricles of guinea pig hearts are electrically stimulated in an organ bath, the amplitude of contraction being recorded. By means of a second stimulus, the time is determined below which the heart muscle no longer reacts with a separately resolvable contraction. This time is defined as the refractory time.
The following Table II contains information concerning the maximum tested compound concentrations, as well as the average prolongation of the refractory time measured at this concentration in comparison with the initial value of, in each case, at least 6 experiments.

[3] = system: dogs with coronary ligature; test: Coronary ligature on dogs (period of sinus rhythm from ECG); type: in vivo
Excerpt: Using narcotised dogs, after thoracotomy, a coronary artery (side branch of the R. interventr. post. or of the R. circumflexus) is ligatured (see. A. S. Harris, Circulation, 1, 1318/1950). The heart rhythm disturbances which occur as a result thereof are, on the day following the operation, recorded on the awake animals and treated with the compounds according to the present invention by intragastral and intravenous administration. Procainamide is used as a positive standard. From the ECG, the time is determined in which, after administration of the test compound, a sinus rhythm can be recognized.
The compounds of Examples 1 (Table III), 4 (Table IV) and 10 (Table V) were tested on dogs with a coronary ligature. All the compounds were, in each case, tested on at least 5 animals.

rabbit eye = test: Local anesthetic action on the rabbit eye (corneal reflex); type: in vivo, rabbits; settings: for Period of Action: observation discontinued after 60 minutes
Experimental: The corneal reflex is induced in rabbits using a horse hair which bends with a pressure of about 250 mg (modification of the method described by M. von Frey, Beitrage zur Physiologie des Schmerzsinns, Vehr. d. Kgl. Sachs, Ges. d. Wiss. zu Leipzig, Math.-phys. Kl., 46, 185/1894; Untersuchungen uber die Sinnesfunktionen der menschlichen Haut, Leipzig, 1896). After instillation of local anesthetics into the conjunctival sac of the eye, the number of impacts with the horse hair which result in closure of the eyelid is increased. At intervals of 4 minutes, in each case a maximum of 100 successive impacts are carried out and such an action is taken as being 100%. The period of investigation is at most 60 minutes. The action of the compounds according to the present invention is compared with that of tetracaine and procainamide.
The following Table VII contains the results of the experiments on the rabbit eye. There are also given, in addition to the concentrations of the test solutions which were instilled into the conjunctival sac, the actions of the compounds in % (see description of the method), as well as their period of action. In each case, the observations were discontinued after 60 minutes.

in vivo = settings: mouse, po
Experimental: The compounds according to the present invention are administered intragastrally to male mice (NMRI) with a body weight of from 20 to 25 g. Each dosage group consists of 4 animals. The LD50 values are determined after having observed the animals for 7 days.

[4] = Oryctolagus cuniculus, topical, concentration 1.0 %
[5] = Oryctolagus cuniculus, topical, concentration 0.1 %
[6] = Oryctolagus cuniculus, topical, concentration 0.5 %
[7] = Oryctolagus cuniculus, topical, concentration 2.0 %

SMILES: COc1ccc2c(c1)-c1c(ccc(OC)c1O)CC(CCc1ccccc1)N(C)CC2 (single isomer, unassigned; (+)) [Example 10, (+)-2,12-Dimethoxy-1-hydroxy-7-methyl-6-phenethyl-5,6;8,9-tetrahydro-7H-dibenz(d,f)azonine]
- average period of arrhythmia ([1]; 2.5 mg/kg I.V.): 5.4 min
- average prolongation of the refractory time ([2]; 4.0 × 10^-6 g/ml in the bath): 44 ms
- average period of eurhythmia ([3]; 2 mg/kg i.v.): 40 min
- average period of eurhythmia ([3]; 5 mg/kg i.g.): 105 min
- average period of eurhythmia ([3]; 10 mg/kg i.g.): 169 min
- average period of eurhythmia ([3]; 40 mg/kg i.g.): 185 min
- inhibition in vivo at 1 % (rabbit eye; [4]): 100%
- Period of Action (rabbit eye; concentration 1.0 %): > 60 min
- LD50 at 168 h (in vivo): 600 mg/kg

SMILES: COc1ccc2c(c1)-c1c(ccc(OC)c1O)CC(Cc1ccccc1)N(C)CC2 (single isomer, unassigned; (-)) [Example 1, (-)-6-Benzyl-2,12-dimethoxy-1-hydroxy-7-methyl-5,6;8,9-tetrahydro-7H-dibenz(d,f)azonine]
- average period of arrhythmia ([1]; 2.5 mg/kg I.V.): 4.0 min
- average prolongation of the refractory time ([2]; 8.0 × 10^-6 g/ml in the bath): 43 ms
- average period of eurhythmia ([3]; 4 mg/kg i.v.): 62 min
- average period of eurhythmia ([3]; 10 mg/kg i.g.): 49 min
- average period of eurhythmia ([3]; 15 mg/kg i.g.): 99 min
- average period of eurhythmia ([3]; 20 mg/kg i.g.): 105 min
- average period of eurhythmia ([3]; 25 mg/kg i.g.): 198 min
- inhibition in vivo at 0.1 % (rabbit eye; [5]): 89%
- inhibition in vivo at 0.5 % (rabbit eye; [6]): 100%
- Period of Action (rabbit eye; concentration 0.1 %): about 49 Min.
- Period of Action (rabbit eye; concentration 0.5 %): > 60 min
- LD50 at 168 h (in vivo): 680 mg/kg

SMILES: COc1ccc2c(c1)-c1c(ccc(OC)c1O)CC(Cc1ccccc1Cl)N(C)CC2 (single isomer, unassigned; (-)) [Example 4, (-)-6-(2'-Chlorobenzyl)-2,12-dimethoxy-hydroxy-7-methyl-5,6;8,9-tetrahydro-7H-dibenz(d,f)azonine]
- average period of arrhythmia ([1]; 5 mg/kg I.V.): 4.6 min
- average period of arrhythmia ([1]; 10 mg/kg I.V.): 2.3 min
- average prolongation of the refractory time ([2]; 1.6 × 10^-5 g/ml in the bath): 21 ms
- average period of eurhythmia ([3]; 4 mg/kg i.v.): 68 min
- average period of eurhythmia ([3]; 40 mg/kg i.g.): 91 min
- average period of eurhythmia ([3]; 60 mg/kg i.g.): 103 min
- average period of eurhythmia ([3]; 80 mg/kg i.g.): 139 min
- LD50 at 168 h (in vivo): 1200 mg/kg

SMILES: COc1ccc2c(c1)-c1c(ccc(OC)c1OC(C)=O)CC(Cc1ccccc1)N(C)CC2 (single isomer, unassigned; (-)) [Example 8, (-)-1-Acetoxy-6-benzyl-2,12-dimethoxy-7-methyl-5,6;8,9-tetrahydro-7H-dibenz(d,f)azonine]
- average period of arrhythmia ([1]; 4 mg/kg I.V.): 5.7 min
- average prolongation of the refractory time ([2]; 4.0 × 10^-6 g/ml in the bath): 21 ms
- inhibition in vivo at 0.5 % (rabbit eye; [6]): 74%
- inhibition in vivo at 2 % (rabbit eye; [7]): 100%
- Period of Action (rabbit eye; concentration 0.5 %): > 60 min
- Period of Action (rabbit eye; concentration 2.0 %): > 60 min
- LD50 at 168 h (in vivo): 1200 mg/kg

SMILES: COc1ccc2c(c1)-c1c(ccc(OC)c1O)CC(Cc1c(Cl)cccc1Cl)N(C)CC2 (single isomer, unassigned; (-)) [Example 11, (-)-6-(2',6'-Dichlorobenzyl)-2,12-dimethoxy-7-methyl-1-hydroxy-5,6;8,9-tetrahydro-7H-dibenz(d,f)azonine]
- average period of arrhythmia ([1]; 8 mg/kg I.V.): 7.7 min
- antiarrhythmic action / period of arrhythmia (in words) ([1]; in comparison with control animals or procainamide): just as good
- average prolongation of the refractory time ([2]; 3.2 × 10^-5 g/ml in the bath): 29 ms
- inhibition in vivo at 1 % (rabbit eye; [4]): 55%
- inhibition in vivo at 2 % (rabbit eye; [7]): 100%
- Period of Action (rabbit eye; concentration 1.0 %): > 60 min
- Period of Action (rabbit eye; concentration 2.0 %): > 60 min
- LD50 at 168 h (in vivo): > 1600 mg/kg

SMILES: COc1ccc2c(c1)-c1c(ccc(OC)c1O)CC(Cc1cccc(C)c1)N(C)CC2 (single isomer, unassigned; (-)) [Example 12, (-)-6-(3'-Methylbenzyl)-2,12-dimethoxy-7-methyl-1-hydroxy-5,6;8,9-tetrahydro-7H-dibenz(d,f)azonine]
- average period of arrhythmia ([1]; 5 mg/kg I.V.): 6.4 min
- average prolongation of the refractory time ([2]; 6.4 × 10^-5 g/ml in the bath): 51 ms
- inhibition in vivo at 0.1 % (rabbit eye; [5]): 68%
- inhibition in vivo at 0.25 % (rabbit eye; Oryctolagus cuniculus, topical, concentration 0.25 %): 100%
- Period of Action (rabbit eye; concentration 0.1 %): about 56 Min.
- Period of Action (rabbit eye; concentration 0.25 %): > 60 min
- LD50 at 168 h (in vivo): 1200 mg/kg

SMILES: CCN(CC)CCNC(=O)c1ccc(N)cc1 [procainamide, reference compound]
- average period of arrhythmia ([1]; 10 mg/kg I.V.): 7.3 min
- average prolongation of the refractory time ([2]; 6.4 × 10^-5 g/ml in the bath): 7 ms
- average period of eurhythmia ([3]; 10 mg/kg i.v.): 19 min
- inhibition in vivo at 0.5 % (rabbit eye; [6]): 1%
- inhibition in vivo at 2 % (rabbit eye; [7]): 1%
- Period of Action (rabbit eye; concentration 0.5 %): 0 min
- Period of Action (rabbit eye; concentration 2.0 %): 0 min
- local anesthetic activity (in words) (rabbit eye; versus procainamide and tetracaine): inactive
- LD50 at 168 h (in vivo): 1200 mg/kg
